# Test results taken from the NIST ThermoML archive (doi:10.1021/je034228o).
# Numbers after ± are expanded uncertainties.
# Conditions: Crystal; DTA
row,Compound,Normal melting temperature
1,CC(C)Cc1ccc([C@H](C)C(=O)O)cc1 [(S)-2-(4-isobutylphenyl)propanoic acid],51.1 ± 0.5 °C
2,CC(C)Cc1ccc(C(C)C(=O)O)cc1 (configuration not stated) [ibuprofen],76.1 ± 0.5 °C
